# Where two headings read alike, the source gives them in different places.
# Legend:
# [1] = tested on: DAOY cells; experiment: Spheroid invasion assay (SIA), bFGF-induced collagen I invasion; assay type: cell-based, human
# Outline: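 Spheroids formed over 24–72 h were embedded in collagen I (final 1.75 mg/ml) and stimulated with bFGF (100 ng/ml unless stated), HGF 30 ng/ml or EGF 20 ng/ml with compound in DMSO. Invasion distance was quantified 24–48 h after embedding.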
# [2] = Semi-thermodynamic solubility; assay type: physicochemical; conditions: for solubility / solubility thermodynamic: PBS, aqueous buffer, thermodynamic from solid; for solubility: Room Temp, Overnight, LC-MSMS; for solubility thermodynamic: overnight; for solubility thermodynamic / Solubility (class in words): summary sheet
# Outline: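 Compound solution agitated overnight at ambient temperature, then centrifuged twice (30 min, 3000 rpm, RT). Supernatant diluted in 50% methanol/water with internal standard and quantified by LC–MS/MS. Solubility derived from a linear or quadratic fit of the standard curve.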
# [3] = Microsomal metabolic stability; assay type: in vitro ADME; conditions: human, pooled liver microsomes; for half-life at 1 µM: pH 7.4, liver microsomes, read-out: t1/2; for microsomal CLint at 1 µM: pH 7.4, read-out: Metabolic stability - Intrinsic clearance (CI)
# Outline: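 Pooled liver microsomes were incubated with NADPH for 0, 5, 15, 30 and 45 min; the minus-NADPH control (0.1 M phosphate pH 7.4) ran 45 min only. Reactions were stopped in acetonitrile and analysed by LC–MS/MS. t1/2 = 0.693/k came from the ln peak-area-ratio versus time slope, and CLint (μl/min/mg protein) was derived from it.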
# [4] = CaCo-2 permeability (bi-directional); conditions: human
# Outline: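 Caco-2 monolayers (passage 40–60) cultured 20 days on Transwells, equilibrated 40 min in HBSS; compound dosed apically (A-B) or basolaterally (B-A) with 1% v/v DMSO and lucifer yellow integrity marker, in duplicate. LC–MS/MS quantification; Papp from permeation rate, C0 and monolayer area; efflux ratio = Papp(B-A)/Papp(A-B).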
# [5] = tested on: HepG2 human hepatocellular carcinoma cells; experiment: Cell viability (cytotoxicity, MTT) using HepG2; assay type: cell-based; conditions: for MEC: 72h, 3 replicas, NR = No response (Summary sheet); for MTT (MEC) Minimum effective concentration: 72 h, summary sheet
# Outline: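 Compounds were tested at 8 concentrations in triplicate on HepG2 cells plated 24 h beforehand, with 72 h exposure in 1% DMSO medium. MTT was loaded 1 h before the end, solubilized in DMSO and read at 570 nm. Minimum effective concentration is the lowest concentration exceeding the significance level, given dose-response or two consecutive points above it.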
# [6] = read-out: Solubility Replicate 1
# [7] = read-out: Solubility Replicate 3
# [8] = read-out: Solubility Replicate 4
# [9] = Caco-2, Mean Papp B-A, Caco-2, summary sheet
# [10] = Caco-2, pH 7.4, Mean % Recovery A2B, HBSS/HBSS, pH 7.4/7.4
# [11] = Caco-2, pH 7.4, Mean % Recovery B2A, HBSS/HBSS, pH 7.4/7.4
# [12] = Caco-2, pH 7.4, Mean Papp B2A, HBSS/HBSS, pH 7.4/7.4
# [13] = Caco-2, pH 7.4, Papp B2A Replicate 1, HBSS/HBSS, pH 7.4/7.4
# [14] = Caco-2, pH 7.4, Papp B2A Replicate 2, HBSS/HBSS, pH 7.4/7.4
solubility ([2]; read-out: Mean Solubility) [µM],"solubility [2, 6] [µM]","solubility [2, 7] [µM]","solubility [2, 8] [µM]",solubility thermodynamic [2] [µM],Solubility (class in words) [2],half-life at 1 µM [3] [min],microsomal CLint at 1 µM [3] [µL/min/mg],"Papp B→A at 120 min, 10 μM [4, 9] [×10⁻⁶ cm/s]","recovery at 120 min, 10 µM [4, 10] [%]","recovery at 120 min, 10 µM [4, 11] [%]","Papp B→A at 120 min, 10 μM [4, 12] [×10⁻⁶ cm/s]","Papp B→A at 120 min, 10 μM [4, 13] [×10⁻⁶ cm/s]","Papp B→A at 120 min, 10 μM [4, 14] [×10⁻⁶ cm/s]",Compound,MEC [5] [µM],MTT (MEC) Minimum effective concentration [5] [µM],also measured
> 100,> 100,> 100,> 100,> 100,Freely,3.35,414,7.05,32.1,33.3,7.05,7.14,6.96,O=[N+]([O-])c1c(Cl)cc(O)c2c1C1C=CCC1C(c1ccc(Cl)cc1Cl)N2 (centres unmarked) [Compound 8],6.79,6.79,"functional activity in SIA (result in words) ([1]; DAOY, bFGF-induced, 1, 5 and 10 µM): invasion inhibition only at the highest concentration"
> 100,> 100,> 100,> 100,> 100,Freely,3.91,355,38.3,73.1,104,38.3,39.9,36.8,COc1ncc(C(C)NC2CC(C)(C)NC(C)(C)C2)cc1Cl (centres unmarked) [Compound 3.3],75.8,75.8,"EC50 ([1]; Homo sapiens, Daoy, DAOY cells, n = 3 technical replicas, read-out: EC50 for the inhibition of bFGF-induced collagen I invasion): 14.3 µM; solubility ([2]; read-out: Solubility Replicate 2): > 100 µM; efflux ratio at 120 min, 10 μM ([4]; Caco-2): 8.01; Papp A→B at 120 min, 10 μM ([4]; Caco-2, Mean Papp A-B, Caco-2, summary sheet): 4.79 ×10⁻⁶ cm/s; efflux ratio at 120 min, 10 μM ([4]; Caco-2, pH 7.4): 8.01; Papp A→B at 120 min, 10 μM ([4]; Caco-2, pH 7.4, Mean Papp A2B, HBSS/HBSS, pH 7.4/7.4): 4.79 ×10⁻⁶ cm/s; Papp A→B at 120 min, 10 μM ([4]; Caco-2, pH 7.4, Papp A2B Replicate 1, HBSS/HBSS, pH 7.4/7.4): 4.98 ×10⁻⁶ cm/s; Papp A→B at 120 min, 10 μM ([4]; Caco-2, pH 7.4, Papp A2B Replicate 2, HBSS/HBSS, pH 7.4/7.4): 4.59 ×10⁻⁶ cm/s"

# Reference: publication PMC10060354, “Discovery of a small molecule ligand of FRS2 that inhibits invasion and tumor growth” (Cellular Oncology, 2022)
